These results are taken from PubChem BioAssay AID463199 (Broad Institute, 2010).

The source made the active and inactive calls.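 The calls were made as follows: active = AC50, the dose giving half-maximal effect, exceeds a fixed cutoff for a compound that rescues yeast growth under heat; inactive = the rest, inconclusive results apart.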 Where a SMILES comes first, the peptide text is derived from it.

One may read the AC50 as the concentration at which the activity in the assay is half-maximal.

The subject of this assay is S. cerevisiae Burl-1 ts mutant growth, BacTiter-Glo, 38.5C 24 h. As to the kind of experiment: growth induction of Burl-1 ts yeast mutant, dose response, counter-screen for SUMOylation pathway inhibitor project, whole organism, S. cerevisiae, luminescence (AID 463199). For orientation: Counterscreens check selectivity or assay interference.

As to `O=[N+]([O-])c1cncc([N+](=O)[O-])c1Nc1ccccc1Cl`, the AC50 is > 42 µM (inactive). `CC(C)CCCN1CCN=C1Nc1ccccc1`: the AC50 was > 42 µM (inactive). In the case of `COc1cccc(C2C(C(C)=O)=C(O)C(=O)N2CCc2c[nH]c3ccccc23)c1` (stereo not drawn), the AC50 was > 42 µM (inactive). On to `Cc1cc(C)n(-c2nc3ccccc3nc2N2CCN(C(=O)c3ccccc3)CC2)n1`, for which the AC50 is > 42 µM (inactive). Next, `COCCCNCC(O)COc1cccc2[nH]c(C)cc12` (stereo not drawn): > 42 µM (inactive); `C=CC[N+]1(CC#Cc2ccccc2)CCCC1`: > 42 µM (inactive); `NC(=O)c1ccccc1NC(=O)c1ccc2c(c1)OCO2`: > 42 µM (inactive).

Consider `CCC(C(=O)Nc1cccnc1)c1ccccc1` (stereo not drawn), for which the AC50 was > 42 µM (inactive). For the molecule `COc1ccc(CCNC(=O)C/C(C)=N/NC(=O)COc2ccc(C)cc2Br)cc1OC`, the AC50 was > 42 µM (inactive).

`COc1cc(/C=N/n2c(C3CCCCC3)n[nH]c2=S)cc(OC)c1O`: the AC50 was > 42 µM (inactive). Take `O=C(c1cccnc1)N1CCCC(Nc2ccc(F)cc2)C1` (stereo not drawn): the AC50 is > 42 µM (inactive). On to `O=C(c1cccs1)N(C(=O)c1cccs1)c1ccc(Br)cn1`, for which the AC50 is > 42 µM (inactive). Consider `Cc1ccc(C(=O)/C=C/c2ccc(-c3ccccc3[N+](=O)[O-])o2)cc1`, for which the AC50 is > 42 µM (inactive). In the case of `COc1ccc(CNC(=O)c2cc(=O)c3cc(C)cc(C)c3o2)cc1`, the AC50 was > 42 µM (inactive).

On to `CC(NC(=O)C1CCCN(S(=O)(=O)N2CCOCC2)C1)c1ccccc1` (stereo not drawn), for which the AC50 was > 42 µM (inactive). Turning to `CCn1c(=O)n(CC)c2cc(NC(=O)c3ccccc3Cl)ccc21`, the AC50 is > 42 µM (inactive). Take `COc1cccc(OC)c1C(=O)Nc1ccc2c(c1)n(C)c(=O)n2C`: the AC50 is > 42 µM (inactive).

As for `COc1ccc(NC(=O)c2ccccc2NC(=O)NC2CCCCC2)cc1`, the AC50 is > 42 µM (inactive). Take `N#CC(CC(=O)c1ccc(F)cc1)c1ccc2c(c1)OCO2` (stereo not drawn): the AC50 is > 42 µM (inactive).

Take `CCCS(=O)(=O)N1CCC(C(=O)N2CCc3ccccc3C2)CC1`: the AC50 was > 42 µM (inactive).

In the case of `COc1cc2c(cc1OC)CN(S(=O)(=O)c1cccc(F)c1)CC2`, the AC50 was > 42 µM (inactive). Regarding `Cc1cc(OCC(=O)NCC2CCC(C(=O)O)CC2)c2c(C)c(C)c(=O)oc2c1` (stereo not drawn), the AC50 is > 42 µM (inactive).

Take `CCCN(CCC)C(=O)CSc1ncccc1C(=O)O`: the AC50 is > 42 µM (inactive). On to `C#CCn1c(=NC(=O)CN2C(=O)CCC2=O)sc2cccc(OC)c21`, for which the AC50 is > 42 µM (inactive). Under `O=C(Nc1cnn(Cc2ccc(Cl)cc2)c1)c1ccc([N+](=O)[O-])cc1` stands > 42 µM (inactive).

Take `O=C(/C=C/c1ccc(Cl)cc1)NCc1ccncc1`: the AC50 is 42 µM. For the molecule `CC1(C)CC(=O)C2=C(C1)Oc1ncn(CCO)c(=N)c1C2c1ccccc1` (stereo not drawn), the AC50 was > 42 µM (inactive). Turning to `O=C(Nc1ccc2oc(-c3ccccc3F)nc2c1)c1ncn[nH]1`, the AC50 is > 42 µM (inactive). As to `CC(C)CCNC(=O)Cn1c(=O)oc2cc(S(=O)(=O)N3CC(C)CC(C)C3)ccc21` (stereo not drawn), the AC50 is > 42 µM (inactive).

Take `NC(=O)CC(NC(=O)Cc1cccc2ccccc12)c1ccc(NCCCN2CCCC2=O)c([N+](=O)[O-])c1` (stereo not drawn): the AC50 is > 42 µM (inactive). In the case of `COc1ccc2oc(=O)c(C(=O)NCc3ccco3)cc2c1`, the half-maximal activity concentration (AC50) was 15.5 µM. For the molecule `CC1(C)CC(=O)C(C(=O)c2ccccc2)C(=O)C1Cl` (stereo not drawn), the AC50 was > 42 µM (inactive).

Turning to `CC[C@@H]1C/C=C\Cc2ccccc2[C@H](C(=O)C[C@@H](O)CC(C)=O)OC1=O`, the AC50 was > 42 µM (inactive). In the case of `CC(=O)NC(CC(C)C)C(=O)NC(CO)C(=O)NC(CCC(=O)O)C(=O)NC(C)C(=O)NC(CC(C)C)C(N)=O` (stereo not drawn) (Ac-LSEAL-NH2; configuration not given here), the AC50 is > 42 µM (inactive). Next, `COc1ccc(CN2CC(=O)N(c3ccccc3C)C2=S)cc1OC`: > 42 µM (inactive). Consider `COc1ccc(C(=O)NCC(=O)Nc2ccccc2)cc1OC`, for which the AC50 was > 42 µM (inactive). Under `COc1cc(CN2CCNC(=O)C2CC(=O)NCCc2ncccc2C)cc(OC)c1` (stereo not drawn) stands > 42 µM (inactive); under `Cn1c(SCC(=O)Nc2ccc(N3CCOCC3)c(Cl)c2)nnc1-c1ccccc1`, > 42 µM (inactive); under `CC1CN=C(NCc2ccccc2)S1` (stereo not drawn), > 42 µM (inactive). On to `COC(=O)CCC(=O)OC1(C)C(=O)C2=CN(CCc3c[nH]c4ccccc34)C(c3ccc(OC)cc3)=CC2=C(Br)C1=O` (stereo not drawn), for which the AC50 is > 42 µM (inactive). Turning to `COc1ccc(N2C(=O)CC(NCc3cccs3)C2=O)cc1` (stereo not drawn), the AC50 is > 42 µM (inactive). For `CCCn1c(=O)c2ccccc2n2c(SCC(=O)N3CCc4ccccc4C3)nnc12`, the AC50 was > 42 µM (inactive). As for `O=C(Nc1ccc(OC(F)(F)F)cc1)c1ccc2ccccc2n1`, the AC50 is > 42 µM (inactive).

With `Cn1c(C(=O)NCCc2ccsc2)cc2c(=O)n(C)c3ccccc3c21`, the AC50 is > 42 µM (inactive).

Take `N#Cc1c(-c2ccco2)cc(-c2cccnc2)nc1N`: the AC50 is > 42 µM (inactive).

As to `CCOC(=O)CSc1cc(C)nc2ccc(OC)cc12`, the AC50 is > 42 µM (inactive). As for `CC(C)C(NC(=S)Nc1ccccc1)C(=O)O` (stereo not drawn), the AC50 was > 42 µM (inactive).

For `COc1ccc(C(=O)O/N=C(\N)c2ccccc2)cc1OC`, the AC50 was > 42 µM (inactive). In the case of `Cc1ccc(SCCNC(=O)CN2C(=O)c3ccccc3S2(=O)=O)cc1`, the AC50 is > 42 µM (inactive). As to `Nc1nnc(COc2ccc(Br)cc2Br)s1`, the AC50 was > 42 µM (inactive).

With `CCOC(=O)C1CC(c2ccccc2)=NNC1=O` (stereo not drawn), the AC50 was > 42 µM (inactive). Next, `CCOCCCNC(=O)C(c1ccc(OC)cc1)N(Cc1ccc2c(c1)OCO2)C(=O)CNC(C)=O` (stereo not drawn): > 42 µM (inactive); `O=C(N/N=C\c1cn(-c2ccccc2)nc1-c1ccccc1)c1ccc(Br)o1`: > 42 µM (inactive); `COCCn1c(SCC(=O)NCc2cccs2)nnc1-c1ccc(OC)cc1`: > 42 µM (inactive).

In the case of `Cc1ccc(S(=O)(=O)NN2C(=O)c3ccccc3NC2c2ccccc2F)cc1` (stereo not drawn), the AC50 was > 42 µM (inactive).

Regarding `CN(c1ccccc1C(=O)N1CCN(Cc2ccc3c(c2)OCO3)CC1)S(C)(=O)=O`, the AC50 is > 42 µM (inactive). `COc1cccc(/C=C2\SC(N3CCC(C)CC3)=NC2=O)c1OC`: the AC50 was > 42 µM (inactive). Under `COc1cc(/C=N/NC(=O)c2cccc([N+](=O)[O-])c2)ccc1O` stands > 42 µM (inactive). Turning to `Cc1ccc(NC(=O)COC(=O)c2csc3c2CCC(C)C3)cc1S(=O)(=O)N1CCCCC1` (stereo not drawn), the AC50 is > 42 µM (inactive). In the case of `CC(C)(C)CC(=O)Nc1cc(S(=O)(=O)N2CCOCC2)ccc1N1CCCC1`, the AC50 is > 42 µM (inactive). `CCCCC(=O)NC(=S)Nc1cccc(C(=O)O)c1`: the AC50 is > 42 µM (inactive). Next, `c1ccc2[nH]c(CSc3nccs3)nc2c1`: > 42 µM (inactive); `COCCn1c(-c2ccc(Cl)cc2)cnc1SCC(=O)NCCc1ccc(OC)c(OC)c1`: > 42 µM (inactive).
